Laboratory results: ChEMBL document CHEMBL4346695, “Thiophenol-formaldehyde triazole causes apoptosis induction in ovary cancer cells and prevents tumor growth formation in mice model” (2019)
The source made the active and inactive calls.

Columns and labels:
Caov-3 cell line = experiment: Growth inhibition of human Caov3 cells incubated for 48 hrs by MTT assay; assay type: functional, cell-based
Homo sapiens = organism: Homo sapiens; experiment: Growth inhibition of human ES2 cells incubated for 48 hrs by MTT assay; assay type: functional
Caov-4 = experiment: Growth inhibition of human Caov4 cells incubated for 48 hrs by MTT assay; assay type: functional, cell-based

Measured: growth inhibition (GI)

Fc1ccc(-n2cc(COCc3ccccc3S)nn2)c(F)c1
active: all assays above

FC(F)(F)c1ccc(-n2cc(COCc3ccccc3S)nn2)cc1
active: all assays above
